The RepoRT retention time repository

Experiment: RP, Waters ACQUITY UPLC HSS T3, 0.1 mL/min; A: water + 0.01% formic acid; B: acetonitrile + 0.01% formic acid; gradient (min/%B) 0/10 38/45 45/45 55/0 60/0
Conditions: stereoisomer not certain

Row | SMILES | LC retention time
1 | CC12CCC3c4cc(O)c(O)cc4CCC3C1CCC2=O (configuration not stated) [Estrone-2-hydroxy] | 24.6 min
2 | COc1cc(OC)nc(NC(=O)NS(=O)(=O)c2cc(NC=O)ccc2C(=O)N(C)C)n1 [Foramsulfuron] | 17.9 min
3 | CN(C)C(=O)Nc1ccc(Cl)c(Cl)c1 [Diuron] | 23.7 min
4 | CCC(C)C(=O)OC1CC(O)C=C2C=CC(C)C(CCC(O)CC(O)CC(=O)O)C21 (configuration not stated) [Pravastatin] | 20.5 min
5 | CC(=O)C1CCC2C3CC=C4CC(O)CCC4(C)C3CCC12C (configuration not stated) [Pregnenolone] | 41.8 min
6 | CC(=O)C1(O)CCC2C3CCC4=CC(=O)CCC4(C)C3CCC21C (configuration not stated) [Progesterone-17-hydroxy] | 33.9 min
7 | CN1CCC23c4c5ccc(O)c4OC2C(O)C=CC3C1C5 (configuration not stated) [Morphine] | 4.26 min
8 | CC(C)(C)C(O)C(Oc1ccc(Cl)cc1)n1cncn1 (configuration not stated) [Triadimenol] | 31.6 min
9 | CCCOC(=O)NCCCN(C)C [Propamocarb] | 5.59 min
10 | COc1cc(OC)n2nc(S(=O)(=O)Nc3c(Cl)ccc(C)c3Cl)nc2n1 [Metosulam] | 24.8 min
11 | CCc1cccc(CC)c1N(COC)C(=O)CCl [Alachlor] | 39.4 min
12 | CON(C)C(=O)Nc1ccc(Br)cc1 [Metobromuron] | 24.5 min
13 | CS(=O)(=O)c1ccc(C(=O)C2C(=O)CCCC2=O)c(Cl)c1 [Sulcotrione] | 18.6 min
14 | CNCCC(Oc1ccc(C(F)(F)F)cc1)c1ccccc1 (configuration not stated) [Fluoxetine] | 23.7 min
15 | COC(=O)c1ccc(CNS(C)(=O)=O)cc1S(=O)(=O)NC(=O)Nc1nc(OC)cc(OC)n1 [Mesosulfuron-methyl] | 26.6 min
16 | CC(C)NC(=O)N1CC(=O)N(c2cc(Cl)cc(Cl)c2)C1=O [Iprodione] | 39.9 min
17 | Oc1ccccc1-c1ccccc1 [2-Phenylphenol] | 30.2 min
18 | CC(Cc1ccc(C(C)(C)C)cc1)CN1CC(C)OC(C)C1 (configuration not stated) [Fenpropimorph] | 30.1 min
19 | CC(Cc1ccc(C(C)(C)C)cc1)CN1CCCCC1 (configuration not stated) [Fenpropidine] | 26.2 min
20 | Cc1ccc(C(=O)O)c(Cl)c1 [2-chloro-4-methylbenzoic acid] | 44.3 min
21 | CNC(=N[N+](=O)[O-])NCc1cnc(Cl)s1 [Clothianidin] | 7.99 min

Row | SMILES | LC retention time
22 | CCCCCC(O)C=CC1C(O)CC(=O)C1CC=CCCCC(=O)O (configuration not stated) [Prostaglandin E2] | 26.5 min
23 | CCNc1nc(NC(C)(C)C)nc(SC)n1 [Terbutryne] | 28 min
24 | COP(=S)(S)OC [Dimethyldithiophosphate] | 2.95 min
25 | Cc1cc(C2CC2)nc(Nc2ccccc2)n1 [Cyprodinil] | 33.2 min
26 | Cc1cc(C)nc(Nc2ccccc2)n1 [Pyrimethanil] | 22.2 min
27 | COC(=O)c1cccc(C)c1S(=O)(=O)NC(=O)Nc1nc(OCC(F)(F)F)nc(N(C)C)n1 [Triflusulfuron-methyl] | 39 min
28 | CC(=O)Nc1ccc(O)cc1 [Paracetamol] | 4.98 min
29 | CNC(=O)Oc1cccc2c1OC(C)(C)C2 [Carbofuran] | 18.6 min
30 | C#CC(C)(C)NC(=O)c1cc(Cl)cc(Cl)c1 [Propyzamide] | 35.6 min
31 | CC1(C)CCC(=Cc2ccc(Cl)cc2)C1(O)Cn1cncn1 (configuration not stated) [Triticonazole] | 33.8 min
32 | Nc1c(Cl)c(F)nc(OCC(=O)O)c1Cl [Fluroxypyr] | 14.4 min
33 | COC(=O)c1ccc(C)cc1C1=NC(C)(C(C)C)C(=O)N1 (configuration not stated) [Imazamethabenz-methyl] | 14.2 min
34 | CCCCCC(O)C=CC1C(O)CC(O)C1CC=CCCCC(=O)O (configuration not stated) [Prostaglandin F2a] | 25.6 min
35 | COP(=S)(OC)Oc1nc(Cl)c(Cl)cc1Cl [Chlorpyrifos-methyl] | 43.9 min
36 | Cc1cc(Cl)ccc1OCC(=O)O [2,4-mcpa] | 17.2 min
37 | NC(=O)Nc1ccc(Cl)c(Cl)c1 [1-(3,4-Dichlorophenyl)urea] | 16.9 min
38 | COc1cc2c(c3oc(=O)c4c(c13)CCC4=O)C1C=COC1O2 (configuration not stated) [Aflatoxin B1] | 17.5 min
39 | NCCc1ccc(O)c(O)c1 [Dopamine] | 3.88 min
40 | CCOC(=O)C1CC(=O)C(=C(O)C2CC2)C(=O)C1 (configuration not stated) [Trinexapac-ethyl] | 26.5 min
41 | C#CC1(O)CCC2C3CCc4cc(O)ccc4C3CCC21C (configuration not stated) [Ethinylestradiol] | 31.6 min
42 | COC(=O)c1ccc(I)cc1S(=O)(=O)NC(=O)Nc1nc(C)nc(OC)n1 [Iodosulfuron-methyl] | 30.4 min

Row | SMILES | LC retention time
43 | Cc1ccc(NC(=O)N(C)C)cc1Cl [Chlortoluron] | 20.5 min
44 | CC(C)(C)C(O)C(Cc1ccc(Cl)cc1)n1cncn1 (configuration not stated) [Paclobutrazole] | 31.5 min
45 | CNCC(O)c1ccc(O)c(O)c1 (configuration not stated) [Epinephrine] | 4.39 min
46 | Cc1cnc2c(C(=O)O)c(Cl)ccc2c1 [Quinmerac] | 8.87 min
47 | CCCOC(=O)c1ccc(O)cc1 [Propylparaben] | 22 min
48 | Nc1nc2ccccc2[nH]1 [Aminobenzimidazole] | 4.74 min
49 | Cc1cccc(C)c1N(Cn1cccn1)C(=O)CCl [Metazachlore] | 26.6 min
50 | COc1cc(OC)nc(NC(=O)NS(=O)(=O)N(C)S(C)(=O)=O)n1 [Amidosulfuron] | 21.2 min
51 | CC(C)N(Cc1ccccc1)C(=O)C(C)(C)C [Tebutame] | 39 min
52 | NCCc1c[nH]c2ccc(O)cc12 [5-Hydroxytryptamine] | 4.3 min
53 | CS(=O)(=O)c1cc(C(F)(F)F)ccc1C(=O)c1cnoc1C1CC1 [Isoxaflutole] | 35.3 min
54 | COc1cc(OC)n2nc(NS(=O)(=O)c3c(C(F)(F)F)ccnc3OC)nc2n1 [Pyroxsulam] | 20.3 min
55 | [O-][n+]1nc(-n2ccnc2)nc2ccc(Cl)cc21 [Triazoxide] | 16 min
56 | O=C(Nc1ccccc1-c1ccc(Cl)cc1)c1cccnc1Cl [Boscalid] | 38 min
57 | CC1CCC2C(C)C3C(CC4C5CC=C6CC(O)CCC6(C)C5CCC43C)N2C1 (configuration not stated) [Solanidine] | 24.5 min
58 | COc1ccc(C(=CC(=O)N2CCOCC2)c2ccc(Cl)cc2)cc1OC [Dimethomorph] | 32.7 min
59 | CC12CCC(=O)C=C1CCC1C2C(O)CC2(C)C1CCC2(O)C(=O)CO (configuration not stated) [Hydrocortisone] | 15.9 min
60 | CNC(=O)c1cc(Cl)cc(C)c1NC(=O)c1cc(Br)nn1-c1ncccc1Cl [Chlorantraniliprole] | 30.9 min
61 | CCNc1nc(Cl)nc(NC(C)(C)C)n1 [Terbuthylazine] | 30.6 min
62 | COC(=O)Nc1nc2ccccc2[nH]1 [Carbendazim] | 5.69 min
